According to patent publication US8067009B1, “Metalloproteinase oligopeptides and their therapeutic use” (priority 2011, dated 2011):
Where no end group is shown, it is not given here.

Assays:
anti-peptide mouse IgG = test: Anti-peptide immune response assay (Elisa) on serum of immunized mice; assay type: in vivo, Male C57BL/6 mice; details: for Elisa Test pep before B16FO given / Elisa Test pep after B16FO given: read at 450 nm
Protocol: In another embodiment, the synthesized oligopeptides were biotinylated at N-terminal using four carbon spacers by Genscript (Pitcataway, N.J. 08554 USA) and conjugated to KLH protein. In an experiment performed on mice animals were procured, immunized, tumor induced and observed for effectiveness of the treatment of oligopeptide-induced immunotherapy.
The injections were prepared using 100 μl l of KLH conjugated biotinylated peptides and 100 μl of complete Freund's adjuvant (Sigma, St. Louis, Mo.).
(§1) Male C57BL/6 mice 6 weeks of age on arrival were purchased from Simonsen Laboratories, Gilroy, Calif. and maintained in microisolator cage under pathogen-free conditions on a 12-h light/12-h dark schedule for a week. All animals were cared for in accordance with institutional guidelines for the care and use of experimental animals. After housing for a week, the mice (n=5/group) were immunized by intraperitoneal injection on Day 0, and incomplete Freund adjuvant (Sigma) on Day 7, 14 and 28. The blood samples were tested for their immune response by standard Elisa test using microtiter plates. Repeating injections of synthetic peptides in mice produce an immune response to specific individual peptides. Various dilutions were tried and examples of dilutions tried are 1:100, 1:1000 and 1:10000.
All four peptides were conjugated covalently to keyhole limpet hemocyanin (KLH) protein. In a typical experiment 1 mg of the peptide, 4 mg of KLH was dissolved in 5 ml of 0.01 M NaHCO3 and 2 μl of glutaraldehyde and stirred overnight. At the end 100 μl of 1M glycine ethyl ester to the final concentration of 0.1 M and left for 30 min at room temperature. Then precipitated with 4-5 vol of cold acetone at −70 C for 30 minute. Then briefly warmed at room temperature and pellet at 10,000 g for 10 min. The pellet was dissolved in 1 ml of 0.1M NaHCO3 and stored at −20° C.
Microtiter plates were coated with individual peptide in 100 µl/well […] carbonate buffer, pH 9.5 for 20 h at 20° C. After washing, wells were incubated with serial dilution of mouse serum in PBS/0.5% BSA, Tween 20 (binding buffer, BB). After washing, well were incubated with 100 µl/well rabbit anti-mouse IgG polyclonal antibody conjugated with horseradish peroxidase (HRP) in BB for 30 rain at 37° C. After washing, the titer of anti-peptide mouse IgG was determined by color reaction with TMB substrate solution at 450 nm.

[1] = system: human cervical cancer HeLa cells; test: Matrigel invasion with anti-sera from immunized mice; assay type: cell-based; details: anti-sera 1:100 dilution, 24 hours, FIGS. 3A-3D
Protocol: Human cervical cancer (Hela) and murine melanoma B16F0 cells obtained from ATCC (American Type Culture Collection, Rockville, Md.) were maintained in Dulbecco's modified Eagle's medium supplemented with 10% fetal bovine serum and antibiotics. The media and sera used were obtained from ATCC, and antibiotics (penicillin and streptomycin) were from Gibco BRL, Long Island, N.Y.
Invasion studies were conducted using Matrigel™ (Becton Dickinson) inserts in 24-well plates. Suspended in medium containing anti-sera from the experimental immunized mice 1:100 dilution, human cervical cancer HeLa cells seeded on the insert in the well. The well has human dermal fibroblast primed media as chemotaxtant. The plates with the inserts were then incubated in a culture incubator equilibrated with 95% air and 5% CO: for 24 hours. After incubation, the media from the wells were withdrawn. The cells on the upper surface of the insert were gently scrubbed away with cotton swabs. The cells that had penetrated the Matrigel™ membrane were stained with hematoxylin and eosin (H&E) and visually counted under the microscope.

[2] = system: murine melanoma B16F0 cells; test: Tumor growth after challenge of immunized mice with melanoma cells; assay type: in vivo, Male C57BL/6 mice; details: visual, FIG. 7 A-E
From the text: as §1
After dosing the mice, on 45th day, mice were bleed through orbital puncture and blood was collected in 2-ml micro centrifuged tube. After testing for immune response against individual peptides, the mice in each group were inoculated subcutaneously with 0.5×10^6 in 0.2 ml PBS. After injection, the mice were returned the cages and fed regular Purina mouse chow diet. After four weeks, the mice were sacrificed and their tumors were excised. Dimensions (length and width) of tumors were measured using digital caliper, and tumor burden was calculated using the following formula: […].

[3] = column 5, serum dilution 1:1000
[4] = column 5, serum dilution 1:10000
[5] = column 6, serum dilution 1:1000
[6] = column 6, serum dilution 1:10000
[7] = column 7, serum dilution 1:1000
[8] = column 7, serum dilution 1:10000
[9] = column 8, serum dilution 1:1000
[10] = column 8, serum dilution 1:10000
[11] = column 9, serum dilution 1:1000
[12] = column 9, serum dilution 1:10000
[13] = column 10, serum dilution 1:100
[14] = column 10, serum dilution 1:1000
[15] = column 10, serum dilution 1:10000
[16] = column 11, serum dilution 1:100
[17] = column 11, serum dilution 1:1000
[18] = column 11, serum dilution 1:10000
[19] = column 12, serum dilution 1:100
[20] = column 12, serum dilution 1:1000
[21] = column 12, serum dilution 1:10000

-C-H-F-P-F-I-F-E-G-R-S-Y-S-A-C- (CHFPFIFEGRSYSAC; cysteine pairing not given here; also: biotinylated, KLH conjugate) [MMP-9 A-1, MMP-9 oligopeptide, biotinylated and conjugated to KLH for immunization]
Elisa Test pep before B16FO given (anti-peptide mouse IgG; column 5, serum dilution 1:100): 3.898
Elisa Test pep before B16FO given (anti-peptide mouse IgG; [3]): 3.402
Elisa Test pep before B16FO given (anti-peptide mouse IgG; [4]): .394
Elisa Test pep before B16FO given (anti-peptide mouse IgG; column 6, serum dilution 1:100): 3.868
Elisa Test pep before B16FO given (anti-peptide mouse IgG; [5]): 1.901
Elisa Test pep before B16FO given (anti-peptide mouse IgG; [6]): .274
Elisa Test pep before B16FO given (anti-peptide mouse IgG; column 7, serum dilution 1:100): 3.843
Elisa Test pep before B16FO given (anti-peptide mouse IgG; [7]): 1.033
Elisa Test pep before B16FO given (anti-peptide mouse IgG; [8]): .228
Elisa Test pep before B16FO given (anti-peptide mouse IgG; column 8, serum dilution 1:100): 3.895
Elisa Test pep before B16FO given (anti-peptide mouse IgG; [9]): 2.127
Elisa Test pep before B16FO given (anti-peptide mouse IgG; [10]): .330
Elisa Test pep after B16FO given (anti-peptide mouse IgG; column 9, serum dilution 1:100): 3.897
Elisa Test pep after B16FO given (anti-peptide mouse IgG; [11]): 3.624
Elisa Test pep after B16FO given (anti-peptide mouse IgG; [12]): .645
Elisa Test pep after B16FO given (anti-peptide mouse IgG; [13]): 3.864
Elisa Test pep after B16FO given (anti-peptide mouse IgG; [14]): 1.875
Elisa Test pep after B16FO given (anti-peptide mouse IgG; [15]): .244
Elisa Test pep after B16FO given (anti-peptide mouse IgG; [16]): 3.820
Elisa Test pep after B16FO given (anti-peptide mouse IgG; [17]): .999
Elisa Test pep after B16FO given (anti-peptide mouse IgG; [18]): .226
Elisa Test pep after B16FO given (anti-peptide mouse IgG; [19]): 3.87
Elisa Test pep after B16FO given (anti-peptide mouse IgG; [20]): 2.01
Elisa Test pep after B16FO given (anti-peptide mouse IgG; [21]): .22
cells invading through the Matrigel compared to control [1]: more in number compared to MMP-9 A1 treated cells

-C-P-R-K-P-K-W-D-K-C- (CPRKPKWDKC; cysteine pairing not given here; also: biotinylated, KLH conjugate) [MMP-2 A-4, MMP-2 oligopeptide, biotinylated and conjugated to KLH for immunization]
intensity of immune response (anti-peptide mouse IgG; 1:100 dilution): slightly less
Elisa Test pep before B16FO given (anti-peptide mouse IgG; column 5, serum dilution 1:100): 1.485
Elisa Test pep before B16FO given (anti-peptide mouse IgG; [3]): .650
Elisa Test pep before B16FO given (anti-peptide mouse IgG; [4]): .220
Elisa Test pep before B16FO given (anti-peptide mouse IgG; column 6, serum dilution 1:100): 2.409
Elisa Test pep before B16FO given (anti-peptide mouse IgG; [5]): .974
Elisa Test pep before B16FO given (anti-peptide mouse IgG; [6]): .257
Elisa Test pep before B16FO given (anti-peptide mouse IgG; column 7, serum dilution 1:100): 1.811
Elisa Test pep before B16FO given (anti-peptide mouse IgG; [7]): .771
Elisa Test pep before B16FO given (anti-peptide mouse IgG; [8]): .208
Elisa Test pep before B16FO given (anti-peptide mouse IgG; column 8, serum dilution 1:100): 1.649
Elisa Test pep before B16FO given (anti-peptide mouse IgG; [9]): .289
Elisa Test pep before B16FO given (anti-peptide mouse IgG; [10]): .168
Elisa Test pep after B16FO given (anti-peptide mouse IgG; column 9, serum dilution 1:100): 1.836
Elisa Test pep after B16FO given (anti-peptide mouse IgG; [11]): .706
Elisa Test pep after B16FO given (anti-peptide mouse IgG; [12]): .290
Elisa Test pep after B16FO given (anti-peptide mouse IgG; [13]): 3.172
Elisa Test pep after B16FO given (anti-peptide mouse IgG; [14]): 1.286
Elisa Test pep after B16FO given (anti-peptide mouse IgG; [15]): .313
Elisa Test pep after B16FO given (anti-peptide mouse IgG; [16]): 2.278
Elisa Test pep after B16FO given (anti-peptide mouse IgG; [17]): .775
Elisa Test pep after B16FO given (anti-peptide mouse IgG; [18]): .230
Elisa Test pep after B16FO given (anti-peptide mouse IgG; [19]): 1.621
Elisa Test pep after B16FO given (anti-peptide mouse IgG; [20]): .294
Elisa Test pep after B16FO given (anti-peptide mouse IgG; [21]): .167

-D-R-D-K-L-F-G-F-C-P-T-R-A-D-S- (DRDKLFGFCPTRADS; also: biotinylated, KLH conjugate) [MMP-9 A-3, MMP-9 oligopeptide, biotinylated and conjugated to KLH for immunization]
Elisa Test pep before B16FO given (anti-peptide mouse IgG; column 5, serum dilution 1:100): 3.775
Elisa Test pep before B16FO given (anti-peptide mouse IgG; [3]): .394
Elisa Test pep before B16FO given (anti-peptide mouse IgG; [4]): .159
Elisa Test pep before B16FO given (anti-peptide mouse IgG; column 6, serum dilution 1:100): 3.810
Elisa Test pep before B16FO given (anti-peptide mouse IgG; [5]): 2.157
Elisa Test pep before B16FO given (anti-peptide mouse IgG; [6]): .631
Elisa Test pep before B16FO given (anti-peptide mouse IgG; column 7, serum dilution 1:100): 1.991
Elisa Test pep before B16FO given (anti-peptide mouse IgG; [7]): .272
Elisa Test pep before B16FO given (anti-peptide mouse IgG; [8]): .159
Elisa Test pep before B16FO given (anti-peptide mouse IgG; column 8, serum dilution 1:100): 3.812
Elisa Test pep before B16FO given (anti-peptide mouse IgG; [9]): 2.281
Elisa Test pep before B16FO given (anti-peptide mouse IgG; [10]): .267
Elisa Test pep after B16FO given (anti-peptide mouse IgG; column 9, serum dilution 1:100): 3.776
Elisa Test pep after B16FO given (anti-peptide mouse IgG; [11]): .448
Elisa Test pep after B16FO given (anti-peptide mouse IgG; [12]): .167
Elisa Test pep after B16FO given (anti-peptide mouse IgG; [13]): 3.814
Elisa Test pep after B16FO given (anti-peptide mouse IgG; [14]): 1.332
Elisa Test pep after B16FO given (anti-peptide mouse IgG; [15]): .209
Elisa Test pep after B16FO given (anti-peptide mouse IgG; [16]): 2.063
Elisa Test pep after B16FO given (anti-peptide mouse IgG; [17]): .448
Elisa Test pep after B16FO given (anti-peptide mouse IgG; [18]): .158
Elisa Test pep after B16FO given (anti-peptide mouse IgG; [19]): 3.84
Elisa Test pep after B16FO given (anti-peptide mouse IgG; [20]): 2.34
Elisa Test pep after B16FO given (anti-peptide mouse IgG; [21]): .296
size of excised tumors [2]: one of the tumors have completely disappeared

-D-T-D-D-R-F-G-F- (DTDDRFGF; also: biotinylated, KLH conjugate) [M MP-9 A-2, MMP-9 oligopeptide, biotinylated and conjugated to KLH for immunization]
Elisa Test pep before B16FO given (anti-peptide mouse IgG; column 5, serum dilution 1:100): 3.581
Elisa Test pep before B16FO given (anti-peptide mouse IgG; [3]): .646
Elisa Test pep before B16FO given (anti-peptide mouse IgG; [4]): .224
Elisa Test pep before B16FO given (anti-peptide mouse IgG; column 6, serum dilution 1:100): 3.863
Elisa Test pep before B16FO given (anti-peptide mouse IgG; [5]): 1.339
Elisa Test pep before B16FO given (anti-peptide mouse IgG; [6]): .261
Elisa Test pep before B16FO given (anti-peptide mouse IgG; column 7, serum dilution 1:100): 3.870
Elisa Test pep before B16FO given (anti-peptide mouse IgG; [7]): 2.856
Elisa Test pep before B16FO given (anti-peptide mouse IgG; [8]): .477
Elisa Test pep before B16FO given (anti-peptide mouse IgG; column 8, serum dilution 1:100): 3.238
Elisa Test pep before B16FO given (anti-peptide mouse IgG; [9]): .360
Elisa Test pep before B16FO given (anti-peptide mouse IgG; [10]): .175
Elisa Test pep after B16FO given (anti-peptide mouse IgG; column 9, serum dilution 1:100): 3.635
Elisa Test pep after B16FO given (anti-peptide mouse IgG; [11]): .526
Elisa Test pep after B16FO given (anti-peptide mouse IgG; [12]): .203
Elisa Test pep after B16FO given (anti-peptide mouse IgG; [13]): 3.609
Elisa Test pep after B16FO given (anti-peptide mouse IgG; [14]): .859
Elisa Test pep after B16FO given (anti-peptide mouse IgG; [15]): .235
Elisa Test pep after B16FO given (anti-peptide mouse IgG; [16]): 3.465
Elisa Test pep after B16FO given (anti-peptide mouse IgG; [17]): .277
Elisa Test pep after B16FO given (anti-peptide mouse IgG; [18]): .161
Elisa Test pep after B16FO given (anti-peptide mouse IgG; [19]): 3.86
Elisa Test pep after B16FO given (anti-peptide mouse IgG; [20]): .274
Elisa Test pep after B16FO given (anti-peptide mouse IgG; [21]): .348
